Test results published in article PMC10906075 (2024).

Experiments:
[1] = tested on: FAM-labeled phenylalanine aptamer (DNA, aptamer) CTCTCGGGACGACGAGGCTGGATGCATTCGCCGGATGTTCGATGTCGTCCC; experiment: strand-displacement fluorescence assay (FAM/dabcyl); conditions: PBS (~150 mM salt), 2 mM MgCl2, dabcyl quencher strand GTCGTCCCGAGAG (S4) displaced, 50 nM aptamer, 150 nM quencher, ~40 min, ambient
[2] = tested on: Phe peptide (Phe1) (designed); experiment: OWLS; conditions: 1x PBS, thiol for surface coupling (end not stated), OWLS: 1x PBS, nanopore: PBS (~150 mM salt), 0.5-1.5 V, pH and temperature not given
[3] = tested on: Phe peptide (Phe1) (designed); experiment: interface nanopore; conditions: PBS, 1.5 V, 1.0 uN; thiol for surface coupling (end not stated); OWLS: 1x PBS; nanopore: PBS (~150 mM salt), 0.5-1.5 V; pH and temperature not given

| Compound | binding [1] | further results |
| --- | --- | --- |
| N[C@@H](Cc1ccc(O)cc1)C(=O)O | no | – |
| CGACGAGGCTGGATGCATTCGCCGGATGTTCGATGTCG [phenylalanine aptamer] | – | binding signal (ng/cm2 adsorbed mass) ([2]; peptide retained after buffer rinse): 198; binding signal (ms translocation time) [3]: 190 |
| ATTGCTATTCACCGGCGCGGGGCTGGGGCATCGGTAAT [scrambled sequence] | – | binding signal (ng/cm2 adsorbed mass) ([2]; attributed to nonspecific electrostatic binding): 140; binding signal (ms translocation time) [3]: 11 |
| NC(=O)[C@@H](N)Cc1ccccc1 | yes | – |

Continued, in another order:

| binding [1] | Compound | further results |
| --- | --- | --- |
| weak | NCCc1ccccc1 | – |
| no | N[C@@H](Cc1c[nH]c2ccccc12)C(=O)O | – |
| yes | N[C@@H](Cc1ccccc1)C(=O)O | – |
